Broadly, the inhibition is how much of the control response was suppressed.

Structures can show the parent of a compound that is named as a salt. Where a SMILES comes first, the peptide text is derived from it. [ ]: non-standard residue; d: D form. The star is where a group is joined. Phe(4-guanidino) = N=C(N)Nc1ccc(C[C@H](N)C(=O)O)cc1; Benzoyl(4-Ph) = O=C(c1ccc(-c2ccccc2)cc1)*; Palmitoyl = CCCCCCCCCCCCCCCC(=O)*; 4Pal = N[C@@H](Cc1ccncc1)C(=O)O; Myristoyl = CCCCCCCCCCCCCC(=O)*; X2 = O=C(c1ccc(-c2cccs2)s1)*; hLys = NCCCCC[C@H](N)C(=O)O; X1 = FC(F)(F)c1ccc(CN*)cc1; Pip = O=C(O)[C@@H]1CCCCN1; Octanoyl = CCCCCCCC(=O)*; NHOctyl = CCCCCCCCN*; Propionyl = CCC(=O)*; X3 = COc1cccc(CN*)c1; N(Me)OMe = CON(C)*; NHPr = CCCN*

In one experiment the target is T1, DENV protease (Dengue virus type 2, UniProt P29990).
T1 construct: The virus-encoded dengue protease comprises the amino-terminal 180 amino acids of NS3 (NS3pro) of the polyprotein
T1 sequence (P29990 1398-1437): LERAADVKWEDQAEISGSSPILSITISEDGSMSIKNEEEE
T1 sequence (P29990 1476-1653): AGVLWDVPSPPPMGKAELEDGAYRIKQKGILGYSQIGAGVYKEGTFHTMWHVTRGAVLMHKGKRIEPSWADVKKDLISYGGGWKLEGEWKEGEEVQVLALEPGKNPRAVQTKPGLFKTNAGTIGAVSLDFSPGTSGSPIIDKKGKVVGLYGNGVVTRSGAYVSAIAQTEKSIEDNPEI
The experiment can be described thus: biochemical. Particulars: at 1 μM; read-out: inhibition of DENV. The protocol:
Dilutions were made starting from 10 mM stock solutions in DMSO and final concentrations were measured in triplicates. The inhibitors were preincubated for 15 min with DENV protease (100 nM) in the assay buffer (50 mM Tris-HCl pH 9.0, ethylene glycol (10% v/v), and 0.0016% Brij 58). The enzymatic reaction was initiated by the addition of the FRET substrate (final concentration 50 μM) to obtain a final assay volume of 100 μL per well. The enzymatic activity was monitored for 15 min and determined as a slope of relative fluorescence units per second (RFU/s) for each concentration. The mean of the triplicates were plotted against the corresponding concentration in CDDVault to determine the IC50-values. Analogous procedures were used to determine the inhibitory potency on WNV (Kühl et al., J. Med. Chem. 2020, 63 (15): 8179-8197) and ZIKA protease (Nitsche et al., ACS Med. Chem. Lett. 2019 Feb. 14; 10 (2): 168-174). For selectivity screening of active candidates, similar biochemical assays with human serine proteases trypsin (Weigel et al., J. Med. Chem. 2015, 58 (19), 7719-7733.) and/or thrombin (Nitsche et al., J. Med. Chem. 2013, 56 (21), 8389-8403) were used.
Regarding `CCCCCCCCCCCCCCCC(=O)N[C@@H](C)C(=O)N[C@@H](CCCCN)C(=O)N[C@@H](C)C(=O)N[C@H](C)C(N)=O` [compound 148] (Palmitoyl-AKA[dA]-NH2), the inhibition at 1 µM was not below 20%.

The same experiment, now with this note: at 50 μM; read-out: inhibition of DENV.
On to `CCCCCCCCCCCCCCCC(=O)N[C@@H](C)C(=O)N[C@@H](CCCCN)C(=O)N[C@@H](C)C(=O)N[C@H](C)C(N)=O` [compound 148] (Palmitoyl-AKA[dA]-NH2), for which the inhibition at 50 µM was not below 25%.

Take `CCCCCCCCCCCCCCCC(=O)N[C@@H](CCCCN)C(=O)N[C@@H](C)C(=O)N[C@@H](C)C(=O)N[C@@H](CCCCN)C(=O)N(C)OC` [compound 177] (Palmitoyl-KAAK-{N(Me)OMe}): the inhibition at 50 µM was not below 25%. On the same count and under the same terms, to `CCCNC(=O)[C@H](CCCCN)NC(=O)[C@H](CCCCN)NC(=O)[C@H](CCCCN)NC(=O)[C@H](C)NC(=O)CC` [compound 21] (Propionyl-AKKK-NHPr) belongs not below 25%; to `CCCCCCCCCCCCCCCC(=O)N[C@@H](CCCCN)C(=O)N[C@@H](C)C(=O)N[C@@H](C)C(=O)N[C@H](CCCCN)C(=O)NS(=O)(=O)C1CC1` [compound 135], not below 25%.

Consider `CCCCCCCCCCCCCCCC(=O)N[C@@H](CCCCN)CC(=O)N[C@@H](C)C(=O)N[C@@H](C)CC(=O)N[C@H](CCc1ccccc1)C(N)=O` [compound 91], for which the inhibition at 50 µM was not below 25%. `C[C@H](NC(=O)[C@H](C)NC(=O)[C@H](CCCCN)NC(=O)c1ccc(-c2ccccc2)cc1)C(=O)N[C@@H](CCCCN)C(=O)NCc1ccc(C(F)(F)F)cc1` [compound 89] ({Benzoyl(4-Ph)}-KAAK-X1): the inhibition at 50 µM was not below 25%. Still for that read-out and setting: to `CCCCCCCCCCCCCCCC(=O)N[C@@H](CCCCN)C(=O)N1CCCC[C@H]1C(=O)N[C@@H](C)C(=O)N[C@@H](CCCCN)C(N)=O` [compound 15] (Palmitoyl-K[Pip]AK-NH2) belongs not below 25%; to `CCCCCCCCCCCCCCCC(=O)N[C@@H](Cc1ccc(NC(=N)N)cc1)C(=O)N[C@@H](CCC(N)=O)C(=O)N[C@@H](Cc1ccccc1)C(N)=O` [compound 68] (Palmitoyl-[Phe(4-guanidino)]-Gln-Phe-NH2), not below 25%; to `CCCCCCCCCCCCCCCC(=O)N[C@@H](CCCCN)C(=O)N[C@H](C)C(=O)N[C@@H](C)C(=O)N[C@@H](CCCCN)C(N)=O` [compound 158] (Palmitoyl-K[dA]AK-NH2), not below 25%.

As to `CCCCCCCCCCCCCCCCNC(=O)[C@H](CCCCN)NC(=O)C[C@H](C)NC(=O)[C@H](C)NC(=O)C[C@@H](N)CCCCN` [compound 83], the inhibition at 50 µM is not below 25%. Same read-out and setting: next, `CCCCCCCCNC(=O)[C@H](CCCCN)NC(=O)[C@H](C)NC(=O)[C@H](CCCCN)NC(=O)[C@H](CC(C)C)NC(=O)CCCCCCC` [compound 25] (Octanoyl-LKAK-NHOctyl): not below 25%; `CCCCCCCCCCCCCCCC(=O)N[C@@H](CCCCN)C(=O)N[C@@H](C)C(=O)N[C@@H](CCCCN)C(=O)NS(=O)(=O)C1CC1` [compound 178]: not below 25%.

As to `CCCCCCCCCCCCCCCC(=O)N[C@@H](Cc1cccc(NC(=N)N)c1)C(=O)N[C@@H](CCC(N)=O)C(=O)N[C@@H](Cc1ccccc1)C(N)=O` [compound 67], the inhibition at 50 µM was not below 25%.

Turning to `CCCCCCCCCCCCCCCC(=O)N[C@@H](CCCCN)C(=O)N1CCC[C@H]1C(=O)N[C@@H](C)C(=O)N[C@@H](CCCCN)C(=O)NS(=O)(=O)C1CC1` [compound 127], the inhibition at 50 µM was not below 25%. On the same count and under the same terms, to `CCCCCCCCCCCCCCCC(=O)N[C@H](CCCCN)C(=O)N[C@@H](C)C(=O)N[C@@H](CCCCN)C(N)=O` [compound 159] (Palmitoyl-[dK]-Ala-Lys-NH2) belongs not below 25%; to `CCCCCCCCCCCCCCCC(=O)N[C@@H](CCCCN)C(=O)N1CCC[C@H]1C(=O)N[C@@H](C)C(=O)N[C@@H](CCCCN)C(=O)O` [compound 126] (Palmitoyl-KPAK-OH), not below 25%; to `CCCCCCCCCCCCCCCC(=O)N[C@@H](CCCCN)C(=O)N[C@@H](C)C(=O)N[C@@H](C)C(=O)N[C@H](CCc1ccccc1)c1nnc(C)o1` [compound 3], not below 25%. Same read-out and setting: to `CCCCCCCCCCCCCCCC(=O)N[C@@H](CCCCN)C(=O)N[C@@H](C)C(=O)N[C@@H](C)C(=O)N[C@H](C(N)=O)c1ccc(OCc2ccccc2)cc1` [compound 139] belongs not below 25%; to `CCCCCCCCCCCCCC(=O)N[C@@H](CCCCN)C(=O)N[C@@H](C)C(=O)N[C@@H](C)C(=O)N[C@H](CCCCN)C(N)=O` [compound 151] (Myristoyl-KAA[dK]-NH2), not below 25%. For the compound `CCCCCCCCCCCCCCCC(=O)N[C@@H](CCCNC(=N)N)C(=O)N[C@@H](CCC(N)=O)C(=O)N[C@@H](CCCCN)C(=O)c1ccccc1` [compound 42], the inhibition at 50 µM was not below 25%. Take `CCCCCCCCCCCCCCCC(=O)N[C@@H](CCCc1c[nH]c(N)n1)C(=O)N[C@@H](CCC(N)=O)C(=O)N[C@@H](Cc1ccccc1)C(N)=O` [compound 56]: the inhibition at 50 µM is not below 25%.

Consider `CCCCCCCCCCCCCCCC(=O)N[C@@H](CCNc1ncc[nH]1)C(=O)N[C@@H](CCC(N)=O)C(=O)N[C@@H](Cc1ccccc1)C(N)=O` [compound 66], for which the inhibition at 50 µM was not below 25%. The same measure, in the same setting: to `CCCCCCCCCCCCCCCC(=O)N[C@@H](Cc1ccncc1)C(=O)N[C@@H](CCC(N)=O)C(=O)N[C@@H](Cc1ccccc1)C(N)=O` [compound 63] (Palmitoyl-[4Pal]-Gln-Phe-NH2) belongs not below 25%; to `CCCCCCCCCCCCCCCC(=O)N[C@@H](CCCCN)CCN1CCC[C@H]1CC(=O)N[C@@H](C)C(=O)N[C@@H](Cc1c[nH]c2ccccc12)C(N)=O` [compound 120], not below 25%.

With `C[C@H](NC(=O)c1ccc(-c2ccccc2)cc1)C(=O)N[C@@H](CCCNC(=N)N)C(=O)N[C@@H](CCC(N)=O)C(=O)N[C@@H](CCCCN)C(=O)NCc1ccc(C(F)(F)F)cc1` [compound 38] ({Benzoyl(4-Ph)}-ARQK-X1), the inhibition at 50 µM was not below 25%. Still for that read-out and setting: to `CCCCCCCCCCCCCCCC(=O)N[C@@H](CCCCCN)C(=O)N1CCC[C@H]1C(=O)N[C@@H](CCCCN)C(N)=O` [compound 121] (Palmitoyl-[hLys]-Pro-Lys-NH2) belongs not below 25%.

Regarding `CC(=O)N[C@@H](C)C(=O)N[C@@H](CCCNC(=N)N)C(=O)N[C@@H](CCC(N)=O)C(=O)N[C@@H](Cc1ccccc1)B(O)O` [compound 61], the inhibition at 50 µM is not below 25%.

As for `CCCCCCCCCCCCCCCC(=O)N[C@@H](Cc1c[nH]c(N)n1)C(=O)N[C@@H](CCC(N)=O)C(=O)N[C@@H](Cc1ccccc1)C(N)=O` [compound 62], the inhibition at 50 µM was not below 25%. Turning to `CCCCCCCCCCCCCCCC(=O)N[C@@H](C)CC(=O)N[C@@H](CCCNC(=N)N)C(=O)N[C@@H](CCC(N)=O)CC(=O)N[C@@H](CCCCN)C(N)=O` [compound 72], the inhibition at 50 µM was not below 25%.

`CCCCCCCCCCCCCCCC(=O)N[C@@H](CCCCN)C(=O)N[C@@H](C)C(=O)N[C@@H](CCCCN)C(=O)O` [compound 188] (Palmitoyl-Lys-Ala-Lys-OH): the inhibition at 50 µM is not below 25%. For the compound `CCCCCCCCCCCCCCCC(=O)N[C@@H](CCCNC(=N)N)C(=O)N[C@@H](CCC(N)=O)C(=O)N[C@@H](CCCCN)C(N)=O` [compound 40] (Palmitoyl-Arg-Gln-Lys-NH2), the inhibition at 50 µM is not below 25%. Turning to `CCCCCCCCCCCCCCCC(=O)N[C@@H](CCCNC(=N)N)C(=O)N[C@@H](CCC(N)=O)C(=O)N[C@@H](Cc1ccccc1)B(O)O` [compound 60], the inhibition at 50 µM is not below 25%.

As for `CCCCCCCCCCCCCCCC(=O)N[C@@H](CCCCN)C(=O)N[C@@H](CCCCN)C(N)=O` [compound 110], the inhibition at 50 µM is not below 25%. Still for that read-out and setting: to `CCCCCCCCNC(=O)[C@H](CCCCN)NC(=O)[C@H](CCCNC(=N)N)NC(=O)[C@H](C)NC(=O)[C@H](CCCNC(=N)N)NC(=O)CCCCCCC` [compound 29] (Octanoyl-RARK-NHOctyl) belongs not below 25%; to `CCCCCCCCCCCCCCCC(=O)N[C@@H](CCCNC(=N)N)C(=O)N[C@@H](CCCNC(=N)N)C(N)=O` [compound 112] (Palmitoyl-Arg-Arg-NH2), not below 25%. As for `CCCCCCCCCCCCCCCCNC(=O)[C@H](CCCCN)NC(=O)[C@H](C)NC(=O)[C@@H](N)CCCCN` [compound 98], the inhibition at 50 µM was not below 25%. On to `CCCCCCCCCCCCCCCC(=O)N[C@@H](CCCCN)C(=O)N[C@@H](C)C(=O)N[C@@H](C)C(=O)N[C@@H](CCCCN)C(=O)N(C)C` [compound 187] (Palmitoyl-KAAK-NMe2), for which the inhibition at 50 µM is not below 25%. Still for that read-out and setting: next, `CCCCCCCCCCCCCCCC(=O)N[C@@H](CCCCN)C(=O)N[C@@H](C)C(=O)N1CCC[C@H]1C(=O)N[C@@H](CCCCN)C(N)=O` [compound 133] (Palmitoyl-KAPK-NH2): not below 25%. For the compound `COc1cccc(CNC(=O)[C@H](CCCCN)NC(=O)[C@H](CCC(N)=O)NC(=O)[C@H](CCCNC(=N)N)NC(=O)[C@H](C)NC(=O)c2ccc(-c3cccs3)s2)c1` [compound 36] (X2-ARQK-X3), the inhibition at 50 µM was not below 25%.

The experiment is the same for the next values; noted with them: read-out: inhibition of DENV.
`CCCCCCCCCCCCCCCC(=O)N[C@@H](CCc1c[nH]c(N)n1)C(=O)N[C@@H](CCC(N)=O)C(=O)N[C@@H](Cc1ccccc1)C(N)=O` [compound 55, (S)—N1—((S)-1-amino-1-oxo-3-phenylpropan-2-yl)-2-((S)-4-(2-amino-1H-imidazol-4-yl)-2-palmitamidobutanamido)pentanediamide TFA salt]: the inhibition at 50 µM was not below 25%.
